Measured values: ChEMBL document CHEMBL1201862, “PubChem BioAssay data set” (2004)
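Each compound was tested at five concentrations against cells in 96-well plates for 48 hours. GI50: concentration for 50% inhibition of growth.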 The source made the active and inactive calls. Cut-off read from the data, not from the text of the source: active = GI50 up to about 1.1 µM and inactive = higher.

How the values were obtained:
Experiment in all cases: growth of human tumour cells (NCI), 48 h
[1] = system: A549
[2] = system: ACHN
[3] = system: HCT-15
[4] = system: Hs-578T
[5] = system: LOX IMVI
[6] = system: MDA-MB-231
[7] = system: NCI-H226
[8] = system: OVCAR-3
[9] = system: RXF 393
[10] = system: SF-268
[11] = system: SK-MEL-2
[12] = system: SK-OV-3
[13] = system: SW-620

Row | SMILES | GI50 [1] | GI50 [2] | GI50 [3] [µM] | GI50 [4] | GI50 [5] | GI50 [6] | GI50 [7] | GI50 [8] | GI50 [9] | GI50 [10] | GI50 [11] | GI50 [12] | GI50 [13]
1 | NC(CCC(=O)O)C(=O)NC(Cc1ccc(N(CCCl)CCCl)cc1)C(=O)O (stereo not drawn) | > 100 µM (inactive) | > 100 µM (inactive) | > 100 | > 100 µM (inactive) | > 100 µM (inactive) | > 100 µM (inactive) | > 100 µM (inactive) | > 100 µM (inactive) | > 100 µM (inactive) | > 100 µM (inactive) | > 100 µM (inactive) | > 100 µM (inactive) | > 100 µM (inactive)
2 | CC1CCC2C(C)C(=O)OC2C2(C)C(=O)C=CC12 (stereo not drawn) | > 10 µM (inactive) | > 10 µM (inactive) | > 10 | > 10 µM (inactive) | 8.69 µM (inactive) | > 10 µM (inactive) | > 10 µM (inactive) | > 10 µM (inactive) | > 10 µM (inactive) | > 10 µM (inactive) | 9.4 µM (inactive) | > 10 µM (inactive) | > 10 µM (inactive)
3 | Nc1nc(Cl)cc(NCC2(CO)CCCCC2)n1 | > 100 µM (inactive) | > 100 µM (inactive) | > 100 | > 100 µM (inactive) | 49.3 µM (inactive) | > 100 µM (inactive) | > 100 µM (inactive) | > 100 µM (inactive) | > 100 µM (inactive) | > 100 µM (inactive) | > 100 µM (inactive) | > 100 µM (inactive) | > 100 µM (inactive)
4 | C=CCSc1nc2ccccc2c(=O)n1Cc1ccco1 | 78.9 µM (inactive) | > 100 µM (inactive) | 64.1 | > 100 µM (inactive) | > 100 µM (inactive) | > 100 µM (inactive) | > 100 µM (inactive) | 68.7 µM (inactive) | 35.6 µM (inactive) | > 100 µM (inactive) | > 100 µM (inactive) | > 100 µM (inactive) | > 100 µM (inactive)
5 | Oc1nc2nnc(COc3ccc(Cl)cc3Cl)n2nc1Cc1ccccc1 | 94.2 µM (inactive) | 41.8 µM (inactive) | > 100 | 51.6 µM (inactive) | > 100 µM (inactive) | 43.2 µM (inactive) | 25.1 µM (inactive) | 27.5 µM (inactive) | 21.5 µM (inactive) | 63.4 µM (inactive) | > 100 µM (inactive) | 27.4 µM (inactive) | > 100 µM (inactive)
6 | COc1ccc2ccccc2c1C1NC(=O)c2ccccc2N1 (stereo not drawn) | 1.51 µM (inactive) | 1.26 µM (inactive) | 0.436 | 1.7 µM (inactive) | 0.995 µM (active) | 3.63 µM (inactive) | 1.57 µM (inactive) | 0.398 µM (active) | 1.37 µM (inactive) | 3.08 µM (inactive) | 2.08 µM (inactive) | 2.82 µM (inactive) | 0.536 µM (active)
7 | NS(=O)(=O)c1ccc(/N=N/c2cc3ccccc3c(C(=O)O)c2O)cc1 | > 52.7 µM (inactive) | 15.7 µM (inactive) | > 49.7 | > 67.3 µM (inactive) | > 54.5 µM (inactive) | > 52 µM (inactive) | > 100 µM (inactive) | > 47.8 µM (inactive) | > 46.2 µM (inactive) | > 52.1 µM (inactive) | > 45.1 µM (inactive) | > 66.4 µM (inactive) | > 41.8 µM (inactive)
8 | CC(C)/C(Cl)=N/OC(=O)Nc1ccc(OC(F)(F)F)cc1 | 17 µM (inactive) | 12.6 µM (inactive) | 6.12 | 15.8 µM (inactive) | 2.1 µM (inactive) | 15.6 µM (inactive) | 11.1 µM (inactive) | 17.9 µM (inactive) | 4.03 µM (inactive) | 23.2 µM (inactive) | 14.2 µM (inactive) | 17.6 µM (inactive) | 1.77 µM (inactive)
9 | CCOc1cc(C2SCC(=O)N2c2nc3cc4sc(N5C(=O)CSC5c5ccc(O)c(OCC)c5)nc4cc3s2)ccc1O (stereo not drawn) | 6.98 µM (inactive) | > 48.4 µM (inactive) | 8.47 | > 47.1 µM (inactive) | 38.3 µM (inactive) | > 48.5 µM (inactive) | 23.6 µM (inactive) | > 100 µM (inactive) | > 100 µM (inactive) | > 68.2 µM (inactive) | > 100 µM (inactive) | > 100 µM (inactive) | 27.1 µM (inactive)
10 | O=C1NC(Cc2ccc(O)cc2)C(=O)NC1Cc1ccc(O)cc1 (stereo not drawn) | > 100 µM (inactive) | > 100 µM (inactive) | > 100 | > 100 µM (inactive) | > 100 µM (inactive) | > 100 µM (inactive) | > 100 µM (inactive) | > 100 µM (inactive) | > 100 µM (inactive) | > 100 µM (inactive) | > 100 µM (inactive) | > 100 µM (inactive) | > 100 µM (inactive)
11 | CCOC(=O)Cc1cc(=O)oc2cc(O)ccc12 | > 100 µM (inactive) | > 100 µM (inactive) | > 100 | > 100 µM (inactive) | > 100 µM (inactive) | > 100 µM (inactive) | > 100 µM (inactive) | > 100 µM (inactive) | > 100 µM (inactive) | > 100 µM (inactive) | > 100 µM (inactive) | > 100 µM (inactive) | > 100 µM (inactive)
12 | N/C(=N/O)c1cn(C2OC(CO)C(O)C2O)c2ncnc(NO)c12 (stereo not drawn) | 0.126 µM (active) | 0.0189 µM (active) | 0.184 | 1.01 µM (active) | 0.123 µM (active) | 0.0344 µM (active) | 0.34 µM (active) | 0.255 µM (active) | 0.356 µM (active) | 0.164 µM (active) | < 0.0131 µM (active) | < 0.02 µM (active) | 0.143 µM (active)
13 | O=C1C(c2ccccc2)=C(c2ccccc2)C1(Cl)Cl | 11.4 µM (inactive) | 2.64 µM (inactive) | 2.07 | 3.56 µM (inactive) | 1.93 µM (inactive) | 3.28 µM (inactive) | 3.07 µM (inactive) | 2.62 µM (inactive) | 1.88 µM (inactive) | 2.99 µM (inactive) | 2.72 µM (inactive) | 15.8 µM (inactive) | 2.75 µM (inactive)
14 | CSC(=N/C=C/c1ccccc1)SC | 60.3 µM (inactive) | > 100 µM (inactive) | > 100 | 68.1 µM (inactive) | 50.5 µM (inactive) | > 100 µM (inactive) | > 100 µM (inactive) | 51.4 µM (inactive) | 25.2 µM (inactive) | > 100 µM (inactive) | > 100 µM (inactive) | > 100 µM (inactive) | > 100 µM (inactive)
15 | CCOP(=O)(OCC)C(C)(CC)N/C(=N\C1=NC(C(F)(F)F)(C(F)(F)F)N=C(C(F)(F)F)O1)NC(NC(C)=O)(C(F)(F)F)C(F)(F)F (stereo not drawn) | 53.5 µM (inactive) | 28.8 µM (inactive) | 58.5 | 31.8 µM (inactive) | 32.2 µM (inactive) | 22.9 µM (inactive) | 22 µM (inactive) | 40.3 µM (inactive) | 32.6 µM (inactive) | 52.2 µM (inactive) | 25.5 µM (inactive) | 27.4 µM (inactive) | 56.8 µM (inactive)
16 | O=C1NC(=O)C(c2c[nH]c3cc(Br)ccc23)=C1c1cn(C(c2ccccc2)(c2ccccc2)c2ccccc2)cn1 | 7.24 µM (inactive) | 20.2 µM (inactive) | 12.8 | 22.4 µM (inactive) | 15.1 µM (inactive) | 5.97 µM (inactive) | 3.38 µM (inactive) | 29.7 µM (inactive) | 15 µM (inactive) | 13.8 µM (inactive) | 11.2 µM (inactive) | 28.6 µM (inactive) | 15.7 µM (inactive)
